Measurements: US7354904B2, “Bacteriocin inducer peptides” (priority 2005, dated 2008)

Assays:
C. jejuni = experiment: Spot Test, antagonistic activity of isolated signal peptides; format: cell-based, Campylobacter jejuni; settings: isolated signal peptide
Protocol: (§1) The antagonistic activity of the bacteriocins produced when using the signal peptide and an inducer strain of bacteria against C. jejuni and S. enteritidis was assessed using a Spot Test. The steps included taking various concentrations of pure preparation (μg/ml) of the bacteriocin in approximately 10 microliters of volume plated onto blood-supplemented Campylobacter agar or Nutrient agar (MPA or Meta Peptone Agar) previously seeded with cells of target bacteria. Plates containing cultures of C. jejuni were grown at about 42° C., under microaerobic conditions. Plates containing S. enteritidis were grown at about 37° C. under aerobic conditions. Activity of the bacteriocin was expressed in arbitrary units (AU) per one milliliter of the preparation at which a visible zone of inhibition of the growth of culture appears (Henderson et al., Archives of Biochemistry and Biophysics, Volume 295, 5-12, 1992; herein incorporated by reference). Specific activity can also expressed as arbitrary units per milligram of pure bacteriocin.
(§2) Its activity was about 200 AU/ml and its molecular weight was about 2.5 kDa, as determined by SDS-PAGE electrophoresis. The isoelectric point (pI) was about 7.9 (FIGS. 1A and 1B).
(§3) Its molecular weight was about 3.1 kDa as measured by SDS-PAGE and the isoelectric point (pI) was about 8.1 (FIGS. 2A and 2B).
(§4) Its molecular weight was about 2.1 kDa as determined by SDS-PAGE electrophoresis and its isoelectric point was about 8.9 (FIGS. 3A and 3B).

S. enteritidis = experiment: as above; format: cell-based; settings: isolated signal peptide
Protocol: as §1, §2, §3, §4

[1] = Isoelectric point by isoelectrofocusing; format: physicochemical
Excerpt: FIGS. 1A and 1B are photographs showing the direct detection of signal peptide and bacteriocin OR-7 after SDS-PAGE (A) and isoelectrofocusing (B). […] In FIG. 1A Lane 1-Molecular Mass Markers LMW Range 2,100-12,500 (Amersham Pharmacia Biotech): 2,100; 5,780; 8,400; 12,500 Da. […] Lane 3 contained pI standards (Protein Test Mixture, I Marker Proteins, Serva): 10.0, 9.2, 8.1, 6.9, 5.5, 4.3.
FIGS. 2A and 2B are photographs showing direct detection of signal peptide and bacteriocin 50-52 after SDS-PAGE (A) and isoelectrofocusing (B). […] Lane 3 contained pI standards (Protein Test Mixture, I Marker Proteins, Serva): 10.0, 8.1, 7.9, 6.4, 5.5, 4.3, 4.1, and 3.8.
FIGS. 3A and 3B are photographs showing the direct detection of signal peptide and bacteriocin 760 after SDS-PAGE(A) and isoelectrofocusing (B). […] Lane 3 contained pI standards (Protein Test Mixture, I Marker Proteins, Serva): 10.0, 8.1, 7.9, 6.4, 5.5, 4.3, 4.1, and 3.8.
At the end of 14 hours the supernatant from the cultures was placed into 500 ml centrifuge flasks with about one milliliter of regenerated Sepharose SP Fast Flow (v/v 500: 1). This was incubated for approximately 1 hour at room temperature with stirring. The suspension was then washed with about 100 ml of a 0.2 M TRIS-HCl buffer pH approximately 6.4. The bacteriocins were eluted by centrifugation with about 100 ml of approximately 0.2 M K2HPO4, pH of about 5.8 at about 7,000×g for approximately 10 minutes. Antagonistic activity of the bacteriocin fractions against C. jejuni and S. enteritidis was assessed using a Spot Test as described above. The level of purity of the bacteriocin fractions was determined by SDS-PAGE. The isoelectric points of the fractions were determined by isoelectric focusing. Concentrations of protein for all bacteriocin fractions were determined at 215 nm using a spectrophotometer.

[2] = tested on: Lactobacillus salivarius PVD-32; experiment: Influence of signal peptide on bacteriocin OR-7 production, flask culture (fraction protein at 215 nm, activity by Spot Test against C. jejuni and S. enteritidis); format: cell-based
[3] = tested on: Streptococcus cricetus LWP 760; experiment: Influence of signal peptide on bacteriocin 760 production, flask culture (fraction protein at 215 nm, activity by Spot Test against C. jejuni and S. enteritidis); format: cell-based
[4] = 10% B-B, producer PVD-32 + inducer LWP-252, LWP 760 peptide 0.1 mg
[5] = LWP 760 + LWP320, 0.001 mg peptide
[6] = LWP 760 + LWP 320, 0.001 mg peptide added after about 2 hours
[7] = LWP 760 + LWP 320, 0.001 mg peptide added after about 4 hours
[8] = LWP 760 + LWP 320, 0.001 mg peptide added after about 6 hours
[9] = LWP 760 + LWP 320, 0.01 mg peptide
[10] = LWP 760 + LWP 320, 0.01 mg peptide added after about 2 hours
[11] = LWP 760 + LWP 320, 0.01 mg peptide added after about 4 hours
[12] = LWP 760 + LWP 320, 0.01 mg peptide added after about 6 hours
[13] = LWP 760 + LWP 320, 0.1 mg peptide
[14] = LWP 760 + LWP 320, 0.1 mg peptide added after about 2 hours
[15] = LWP 760 + LWP 320, 0.1 mg peptide added after about 4 hours
[16] = LWP 760 + LWP 320, 0.1 mg peptide added after about 6 hours
[17] = LWP 760, no inducer, 0.001 mg peptide
[18] = LWP 760, no inducer, 0.001 mg peptide added after about 2 hours
[19] = LWP 760, no inducer, 0.001 mg peptide added after about 4 hours
[20] = LWP 760, no inducer, 0.001 mg peptide added after about 6 hours
[21] = LWP 760, no inducer, 0.01 mg peptide
[22] = LWP 760, no inducer, 0.01 mg peptide added after about 2 hours
[23] = LWP 760, no inducer, 0.01 mg peptide added after about 4 hours
[24] = LWP 760, no inducer, 0.01 mg peptide added after about 6 hours
[25] = LWP 760, no inducer, 0.1 mg peptide
[26] = LWP 760, no inducer, 0.1 mg peptide add after about 6 hours
[27] = LWP 760, no inducer, 0.1 mg peptide added after about 2 hours
[28] = LWP 760, no inducer, 0.1 mg peptide added after about 4 hours

WNKYKTNWVLSVCNTGCACAAVKGLT (listed as Streptococcus cricetus) [LWP 760 Signal Peptide, signal peptide isolated from Streptococcus cricetus LWP 760, stimulates bacteriocin 760 production]
105.6 mg: Protein Produced from 1 liter Culture Fluid [3, 5] | Protein Produced from 1 liter Culture Fluid [3, 6] | Protein Produced from 1 liter Culture Fluid [3, 7] | Protein Produced from 1 liter Culture Fluid [3, 8]
1.56 mg/mL: Protein Concentration [3, 9] | Protein Concentration [3, 10] | Protein Concentration [3, 12]
0.35 mg/mL: Protein Concentration [3, 14] | Protein Concentration [3, 15] | Protein Concentration [3, 16]
1.03: Increase in amount of protein vs. control [3, 25] | Increase in amount of protein vs. control [3, 26] | Increase in amount of protein vs. control [3, 27] | Increase in amount of protein vs. control [3, 28]
0.9: Increase in amount of protein vs. control [3, 13]
6,241,523 Au/mg: Specific Activity [3, 11]
approximately 693 Mg: Protein Produced from 1 liter Culture Fluid ([3]; LWP 760 + LWP 320, 0.01 mg peptide added after about 4 hours, listed as signal peptide from LWP 760)
7: Increase in amount of protein vs. control [3, 11]
115.5 mg: Protein Produced from 1 liter Culture Fluid [3, 14] | Protein Produced from 1 liter Culture Fluid [3, 15] | Protein Produced from 1 liter Culture Fluid [3, 16]
1.16: Increase in amount of protein vs. control [3, 14] | Increase in amount of protein vs. control [3, 15] | Increase in amount of protein vs. control [3, 16]
0.19 Mg/ml: Protein Concentration [2, 4]
0.3 mg/mL: Protein Concentration [3, 21]
5,462,666 Au/mg: Specific Activity [3, 17] | Specific Activity [3, 18] | Specific Activity [3, 19] | Specific Activity [3, 20] | Specific Activity [3, 21] | Specific Activity [3, 22] | Specific Activity [3, 23] | Specific Activity [3, 24]
5,121,375 Au/mg: Specific Activity [3, 5] | Specific Activity [3, 6] | Specific Activity [3, 7] | Specific Activity [3, 8]
4,682,400 Au/mg: Specific Activity [3, 14] | Specific Activity [3, 15] | Specific Activity [3, 16]
1,638,840 AU/ml: Activity [3, 5] | Activity [3, 6] | Activity [3, 7] | Activity [3, 8] | Activity [3, 13] | Activity [3, 14] | Activity [3, 15] | Activity [3, 16] | Activity [3, 17] | Activity [3, 18] | Activity [3, 19] | Activity [3, 20] | Activity [3, 21] | Activity [3, 22] | Activity [3, 23] | Activity [3, 24] | Activity [3, 25] | Activity [3, 26] | Activity [3, 27]
92.4 mg: Protein Produced from 1 liter Culture Fluid [3, 13]
about 8.9: isoelectric point (pI) [1]
1.06: Increase in amount of protein vs. control [3, 5] | Increase in amount of protein vs. control [3, 6] | Increase in amount of protein vs. control [3, 7] | Increase in amount of protein vs. control [3, 8]
102.3 mg: Protein Produced from 1 liter Culture Fluid [3, 25] | Protein Produced from 1 liter Culture Fluid [3, 26] | Protein Produced from 1 liter Culture Fluid [3, 27] | Protein Produced from 1 liter Culture Fluid [3, 28]
538,947 AU/mg: Specific Activity [2, 4]
6,553,600 AU/ml: Activity [3, 10] | Activity [3, 12]
5.2: Increase in amount of protein vs. control [3, 9] | Increase in amount of protein vs. control [3, 10] | Increase in amount of protein vs. control [3, 12]
6,533,600 AU/ml: Activity [3, 9]
4,201,025 Au/mg: Specific Activity [3, 9] | Specific Activity [3, 10] | Specific Activity [3, 12]
1: Increase in amount of protein vs. control [3, 17] | Increase in amount of protein vs. control [3, 18] | Increase in amount of protein vs. control [3, 19] | Increase in amount of protein vs. control [3, 20] | Increase in amount of protein vs. control [3, 21] | Increase in amount of protein vs. control [3, 22] | Increase in amount of protein vs. control [3, 23] | Increase in amount of protein vs. control [3, 24]
693 mg: Protein Produced from 1 liter Culture Fluid [3, 11]
0.30 mg/mL: Protein Concentration [3, 17] | Protein Concentration [3, 18] | Protein Concentration [3, 19] | Protein Concentration [3, 20] | Protein Concentration [3, 22] | Protein Concentration [3, 23] | Protein Concentration [3, 24]
did not possess antagonistic activity: antagonistic activity (C. jejuni) | antagonistic activity (S. enteritidis)
102,400 AU/ml: Activity [2, 4]
0.95: Protein increase vs. Control [2, 4]
0.31 mg/mL: Protein Concentration [3, 25] | Protein Concentration [3, 26] | Protein Concentration [3, 27] | Protein Concentration [3, 28]
0.28 mg/mL: Protein Concentration [3, 13]
5,853,000 Au/mg: Specific Activity [3, 13]
2.1 mg/mL: Protein Concentration [3, 11]
514.8 mg: Protein Produced from 1 liter Culture Fluid [3, 9] | Protein Produced from 1 liter Culture Fluid [3, 10] | Protein Produced from 1 liter Culture Fluid [3, 12]
13,107,200 AU/ml: Activity [3, 11]
0.32 mg/mL: Protein Concentration [3, 5] | Protein Concentration [3, 6] | Protein Concentration [3, 7] | Protein Concentration [3, 8]
5,286,580 Au/mg: Specific Activity [3, 25] | Specific Activity [3, 26] | Specific Activity [3, 27] | Specific Activity [3, 28]
does not increase: yield of bacteriocin OR-7 versus the control ([2]; signal peptide of another strain added to PVD-32 + LWP-252)
62.7 mg protein/liter: mg protein/liter [2, 4]
99 mg: Protein Produced from 1 liter Culture Fluid [3, 17] | Protein Produced from 1 liter Culture Fluid [3, 18] | Protein Produced from 1 liter Culture Fluid [3, 19] | Protein Produced from 1 liter Culture Fluid [3, 20] | Protein Produced from 1 liter Culture Fluid [3, 21] | Protein Produced from 1 liter Culture Fluid [3, 22] | Protein Produced from 1 liter Culture Fluid [3, 23] | Protein Produced from 1 liter Culture Fluid [3, 24]
